Results as given in EP0603240B1, “SAFENING HERBICIDAL PYRAZOLYLSULFONYLUREAS” (priority 1991, dated 1993).

Experiments:
Format in all cases: in vivo
corn [1] = test: Example 16, Procedure II: Herbicide No. 1 + EPTC (No. 4, EPTAM) with antidotes
Description: (§1) Containers were filled and compacted with a fumigated silt loam top soil to a depth of about 1.3 cm from the top of the container. A first container was designated as an untreated control, a second container was designated as a herbicide control, and a third container was designated as a herbicide + antidote test container. Each of the containers was seeded with a crop species. A measured amount of herbicide dispersed or dissolved in acetone was applied to a measured quantity of soil. To this same quantity of soil treated with herbicide, there was added a measured amount of antidote dispersed or dissolved in acetone. The quantity of soil treated with the herbicide and antidote was thoroughly mixed to incorporate the herbicide and antidote in the soil uniformly. The seed bed in the third container of soil was covered with the soil treated with the herbicide and antidote and the container was leveled. For each test series, the seed beds of the first and second containers were likewise covered by soil layers. the cover layer of the first container was not treated with herbicide or antidote.
(§2) The containers were then placed on a bench in a greenhouse and sub-irrigated as required for the duration of the test. […] Plant response is measured in terms of percent injury. Antidote efficacy is indicated as the difference in plant injury by the herbicide(s) without the antidote and with the antidote.
(§3) This procedure is the same as Procedure I, but modified in the manner that after incorporation of the chemicals (herbicide and antidote) the containers with the covered seedbed were treated with an initial overhead irrigation equivalent to 0.6 cm rainfall, then subsequently sub-irrigated as required on greenhouse benches.
The test procedure used in these experiments was that of Procedure II described above. The antidotes were applied to a soil cover layer by pipet after spraying the herbicides onto the soil, followed by incorporation and overhead irrigation. […]

corn [2] = test: Example 14, Procedure II: Herbicide No. 1 + metolachlor (No. 12) with Antidote No. 17
Description: as §1, §2, §3
In this example a plurality of dichloroacetamide antidotes were tested for their safening efficacy against a herbicidal composition comprising Herbicide No. […] The procedure used in this example was Procedure II above. […]

[3] = tested on: velvetleaf (Abutilon theophrasti); test: as above
corn [4] = test: Example 26, field trials, pre-plant incorporation (PPI): corn growth reduction; conditions: for maximum injury level (GR) / corn growth reduction (GR): PPI
Description: In order to better understand and to confirm the results of greenhouse tests with herbicidal compositions comprising representative compounds according to Formula I and an antidote with and without a co-herbicide, a large number of field trials were conducted. This example provides a summary of those field trials.
The primary purpose of the field trials summarized herein was to ascertain the amount of corn injury caused by a compound according to Formula I. viz. Herbicide No. 1, with and without a co-herbicide of the α-chloroacetanilide class, viz., Herbicide Nos. 6 and 7, and the extent that any corn injury could be safened by a dichloroacetamide antidotal compound, viz., Antidote No. 15.
Corn injury is generally expressed, in broad terms, in stand reduction, growth reduction, malformed plants and other more specific effects. For purposes of the summary here, the results of a plurality of field trials are expressed in terms of growth reduction (GR), i.e., a significant reduction in plant height of the corn stand. A common criteria for commercially-acceptable corn injury is an amount equal to or less than 10% malformed plants or stand reduction and for present reporting purposes, no greater than about 15% growth reduction. The corn injury/safening described for these field trials refers to commercially-unacceptable to commercially-acceptable performance.
In the field trials from a wide distribution of trial locations, soil types (all having in excess of 2% organic matter), climatic effects, etc., the test chemicals were applied as tank mixes in various modes of application, i.e., pre-plant incorporation (PPI) and preemergence surface application (PRE). Test plots were small plots with three replications in a randomized complete block design. Observations were made and recorded in a period of from 31-50 days after treatment.

[5] = Herbicide No.1 0.14 + No.12 4.48 kg/ha + Antidote No.17 0.15 kg/ha
[6] = Herbicide No.1 0.56 + No.12 4.48 kg/ha + Antidote No.17 0.15 kg/ha
[7] = Herbicide No.1 2.24 + No.12 4.48 kg/ha + Antidote No.17 0.15 kg/ha

COC(=O)c1c(Cl)nn(C)c1S(=O)(=O)NC(=O)Nc1nc(OC)cc(OC)n1 [No.1]
% Injury Corn (corn [1]; Herbicide No.1 0.56 kg/ha alone): 10%
% Injury Corn (corn [1]; Herbicide No.1 1.12 kg/ha alone): 15%

CC1(C)OC(c2ccco2)CN1C(=O)C(Cl)Cl (stereo not drawn) [compound 15]
% Injury Corn (corn [1]; Herbicide No.1 1.12 kg/ha + EPTAM 6.72 kg/ha, antidote 2.24 kg/ha): 5%

CC1COc2ccccc2N1C(=O)C(Cl)Cl (stereo not drawn) [compound 17]
% Injury Corn (corn [2]; [5]): 15%
% Injury Corn (corn [2]; [6]): 25%
% Injury Corn (corn [2]; [7]): 80%
% Injury VL [3, 5]: 90%
% Injury VL [3, 6]: 95%
% Injury VL [3, 7]: 100%

CC1(C)OC(c2ccco2)CN1C(=O)C(Cl)Cl (stereo not drawn) [Antidote No. 15, Oxazolidine, 3-(dichloroacetyl)-5-(2-furanyl)-2,2-dimethyl]
corn injury level (GR) (corn [4]; Herbicide No. 1 0.14 kg/ha + Herbicide No. 6 + Antidote No. 15): 10.3%
corn injury level (GR) (corn [4]; Herbicide No. 1 0.28 kg/ha + Herbicide No. 6 + Antidote No. 15): 12.5%
corn injury level (GR) (corn [4]; Herbicide No. 1 0.7 kg/ha + Herbicide No. 6 + Antidote No. 15): 8.6%
maximum injury level (GR) (corn [4]; Herbicide No. 1 0.07 kg/ha + Herbicide No. 7 + Antidote No. 15 1:1): 22%
corn growth reduction (GR) (corn [4]; Herbicide No. 1 0.07 kg/ha + Herbicide No. 7 + Antidote No. 15 at 1:1 to Herbicide No. 1): 7.75%
maximum injury level (GR) (corn [4]; Herbicide No. 1 0.14 kg/ha + Herbicide No. 7 + Antidote No. 15 1:1): 26%
corn growth reduction (GR) (corn [4]; Herbicide No. 1 0.14 kg/ha + Herbicide No. 7 + Antidote No. 15 at 1:1 to Herbicide No. 1): 9.82%
safening of corn, assessment in words (corn [4]; field trials (PPI and PRE), under most conditions): effectively reduced corn GR injury

COC(=O)c1c(Cl)nn(C)c1S(=O)(=O)NC(=O)Nc1nc(OC)cc(OC)n1 [Herbicide No. 1]
corn injury level (GR) (corn [4]; Herbicide No. 1 0.14 kg/ha + Herbicide No. 6 (acetochlor), without an antidote): 14.9%
corn injury level (GR) (corn [4]; Herbicide No. 1 0.28 kg/ha + Herbicide No. 6 (acetochlor), without an antidote): 24.9%
corn injury level (GR) (corn [4]; Herbicide No. 1 0.7 kg/ha + Herbicide No. 6 (acetochlor), without an antidote): 12.5%
corn growth reduction (GR) (corn [4]; Herbicide No. 1 0.07 kg/ha + Herbicide No. 7 (alachlor), without an antidote): 9.75%
maximum injury level (GR) (corn [4]; Herbicide No. 1 0.07 kg/ha + Herbicide No. 7, without an antidote): 48%
corn growth reduction (GR) (corn [4]; Herbicide No. 1 0.14 kg/ha + Herbicide No. 7 (alachlor), without an antidote): 13.25%
maximum injury level (GR) (corn [4]; Herbicide No. 1 0.14 kg/ha + Herbicide No. 7, without an antidote): 48%
